Experimental data taken from article PMC8566451, “Lead optimization of novel quinolone chalcone compounds by a structure–activity relationship (SAR) study to increase efficacy and metabolic stability” (Scientific Reports, 2021).
pKi: −log10 of the molar value.

Key:
[1] = test system: NCI-60 panel of cancer cell lines; test: NCI-60 panel, SRB colorimetric assay; assay type: cell-based; conditions: 10 μM single dose and five dose data (Supplemental Figs. S1–S8)
Experimental: Supplementa ry Figure l egend
Supplementary Figures S 1- S4.CTR -21 effectivel y prev ent proliferation o f a rep resent ative set […]
of cancer cell lines (NC I-60 panel). Fi gu re S 1: 10 μM of CTR -21 was used against the panel of […]
NC I-60 cancer cell lines including: six leukemia cell lines, nine non-small cell lung cancer cell […]
lines, seven colorectal cancer cell lines, six CNS cancer cell lines, nine mel anoma cell lines, seven ovari an can cer cell lines, seven ren al can cer cell lines, two prostate cancer cell lines and six breast cancer cell lines, utilizing the sulforhodamine B (SRB) colorimetric assa y. Fi gu re S 2- […]
S4: Five dose data for CTR-21.
Supplementary Figures S 5- S8.CTR -32effectivel y prev ent s prolifer ation of a rep resent ative set […]
of cancer cell lines (NC I-60 panel). Fi gu re S 5: 10 μM of CTR -32 was used against the panel of […]
six breast cancer cell lines, utilizing the sulforhodamine B (SRB) colorimetric assa y. Fi gu re S 6- […]
S8: Five dose data for CTR-32.
Supplementa ry Figure S9.CTR -21 and CTR-32 inhibit microtubule pol ymerization in vitro .
Spontaneous pol ymerizat ion of 20µM porcine tubulin was initiated with the addition of 1 […]
mmol/L GTP at 37°C and monitored ever y minut e for 60 minutes in the presence of the […]
indicated concentration of CTR-21, CTR-32, nocodazole, paclitaxel, or a DMSO vehicle […]

[2] = test system: HeLa cells; test: Cell cycle analysis by flow cytometry; assay type: cell-based, human
Experimental: Figure 5 CTR-21 arrests cells at G2/M, eventually leading to cell death by apoptosis. (a) Effects of CTR-21 on the cell cycle progression of HeLa and E112 cells. […] (b) Cell morphology of CTR-21 arrested cells. HeLa cells were treated with 30 nM of CTR-21 for 12 h, fixed with methanol and immunostained with α-tubulin or γ-tubulin, and counterstained with DAPI. Bar = […]. (c) CTR-21 promotes PARP cleavage. […] GAPDH was used as a loading control.
Cell cycle progression was determined using flow cytometry. UKRV-Mel-38 and HeLa cells were plated onto 10 cm plate at a density of 0.5 million and treated them with or without the compounds the following day for 12, 24 or 48 h. Cells were then harvested and centrifuged at 1000 rpm for 5 min, washed in PBS and then fixed with ice-cold ethanol (70%) for at least 24 h at − 20 °C. The cells were centrifuged, re-suspended in PBS solution, followed by centrifugation. The cell pellet was then stained with 100 μg/mL propidium iodide (PI) and 100 μg/mL RNase A in distilled water for at least 1 h. DNA content was measured using a Beckmann Coulter Cytomics FC500 (Beckman Coulter, Fullerton, CA), and the proportion of cell populations in G0/G1, S, and G2/M phases of cell cycle was calculated on the basis of DNA distribution histograms using CXP software (Beckman Coulter, Fullerton, CA).

[3] = molecular target: T1, porcine tubulin (Sus scrofa, UniProt P02550+P02554); test: In vitro tubulin polymerization assay; assay type: biochemical; conditions: 20 µM porcine tubulin; for effect on tubulin polymerization: 3 µM compound, 37 °C, 60 min; for effect on tubulin polymerization at higher concentrations: 10, 15 and 20 µM compound
T1 construct: purchased Cytoskeleton Inc., Denver, CO BK011P
Experimental: (§1) Spontaneous polymerization of 20 µM porcine tubulin was initiated with the addition of 1 mmol/L GTP at 37 °C and monitored every minute for 60 min in the presence of the indicated concentration of CTR-21, CTR-32, nocodazole, paclitaxel, or a DMSO vehicle control. To make the graph simpler, only 3 µM concentration is shown. […] A modified Dixon plot was used to determine the inhibitory concentration of CTR-21 and CTR-32 (Ki).
Microtubule assembly was assessed using a Tubulin Polymerization assay kit (BK011P; Cytoskeleton Inc., Denver, CO). […] Polymerization was started by incubating at 37 °C and followed by absorbance readings every 1 min at 340 nm for 1 h using a Synergy H4 plate reader.

[4] = molecular target: tubulin (colchicine binding site) (Sus scrofa, UniProt P02550+P02554); test: Colchicine binding site competition assay (fluorescence of tubulin-colchicine complex, modified Dixon plot); conditions: for pKi / mode of inhibition of colchicine binding: modified Dixon plot; for mode of inhibition of colchicine binding: trendlines intersect above the X-axis
Experimental: as §1, with “(a) CTR-21 and CTR-32 inhibit microtubule polymerization in vitro. Spontaneous” for “Spontaneous”, “shown. The effects of higher doses are shown in Supplemental Fig. S9. […] Fluorescent intensity was compared to the fluorescence of the tubulin-colchicine complex in absence of CTR-21 or CTR-32 (F0).” for “shown.”
When we added either CTR-21 or CTR-32 to the colchicine-tubulin complex, we observed a reduction in fluorescence in a dose -dependent manner (Fig. 2b).
Microtubule assembly was assessed using a Tubulin Polymerization assay kit (BK011P; Cytoskeleton Inc., Denver, CO). 20 µM of purified porcine tubulin proteins (> 99% purity) were suspended in G-PEM buffer containing 80 mM PIPES, 2 mM MgCl2, 0.5 mM EGTA, 1 mM GTP (pH 6.9) and 20% glycerol. Polymerization was started by incubating at 37 °C and followed by absorbance readings every 1 min at 340 nm for 1 h using a Synergy H4 plate reader.

[5] = Microsome metabolism assay; assay type: in vitro ADME, human; conditions: for half-life at 5 µM: human microsomes (20 mg/ml protein), NADPH, 120 min
Experimental: (a) CTR-21 is much more metabolically stable than CTR-32. 5 µM of CTR-21 or CTR-32 were incubated with human microsomes (20 mg/ml protein) in the presence of NADPH over the course of 120 min. The lysates were analyzed and % remaining CTR compounds were identified and estimated using HPLC–MS. (b) Summary of structure–activity relationship (SAR) based on activity and metabolic stability.
Microsome metabolism assay was carried out as per manufacturer protocol (ThermoFisher), with 5 µM of starting compound. Analytes were measured on a Waters Xevo G2-XS Quadrupole Time-of-Flight mass spectrometer. Half-life was calculated using exponential one phase decay (GraphPad Prism 5). Hydroxychloroquine was used as an internal standard (500 pg/µL).

Compound	activity against NCI-60 panel [1]	cell cycle effect ([2]; HeLa, 30 nM, by 12 h, maintained after 24 h)	effect on tubulin polymerization [3]	effect on tubulin polymerization at higher concentrations [3]	strength of inhibition relative to CTR-32 (Ki ratio) ([4]; CTR-21 versus CTR-32)	pKi [4]	mode of inhibition of colchicine binding [4]	half-life at 5 µM [5] [min]	half-life relative to CTR-32 ([5]; human microsomes)	cell cycle effect ([2]; 3× GI50, 12 or 24 h, HeLa and UKRV-Mel-38 (Supplemental Fig. S11))
COc1ccccc1C(=O)/C=C/c1cc2cccc(OC)c2[nH]c1=O [CTR-21, (E)-8-methoxy-3-(3-(2-methoxyphenyl)-3-oxoprop-1-enyl) quinolin-2(1H)-one]	highly effective	arrest in G2/M	reduced steady-state	did not appreciably increase the inhibition of tubulin dynamics	about 4.9 times	5.83	competitive inhibitors	65.2	almost five times greater	–
CCOc1ccccc1C(=O)/C=C/c1cc2ccccc2[nH]c1=O [CTR-32, (E)-3-(3-(2-ethoxyphenyl)-3-oxoprop-1-enyl)quinolin-2(1H)-one]	highly effective	–	does not affect the steady state dynamics or Vmax of tubulin polymerization	almost completely inhibited the formation of microtubule polymers	–	5.14	competitive inhibitors	13.7	–	arrests the cells in G2/M
